Reference: ChEMBL document CHEMBL1201862, “PubChem BioAssay data set” (2004)
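Briefly, cells in 96-well plates were exposed to five compound concentrations for 48 h, and endpoints were estimated by linear interpolation. At the GI50, growth is halved.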 Activity calls are given as the source filed them. No stated cut-off is given here; in the data, active = GI50 up to about 1.1 µM and inactive = higher.

Key:
Experiment in all cases: NCI tumour cell line growth inhibition, 48 h
HCT-116 = system: HCT-116
SN12C = system: SN12C
COLO 205 = system: COLO 205
M14 = system: M14
MDA-MB-435 = system: MDA-MB-435
HCT-15 = system: HCT-15
SW-620 = system: SW-620
NCI-H23 = system: NCI-H23
UO-31 = system: UO-31
UACC-62 = system: UACC-62
SK-MEL-5 = system: SK-MEL-5
SK-OV-3 = system: SK-OV-3
HT-29 = system: HT-29
RPMI-8226 = system: RPMI-8226
HOP-62 = system: HOP-62
SNB-19 = system: SNB-19
Hs-578T = system: Hs-578T
T47D = system: T47D
DU-145 = system: DU-145
KM12 = system: KM12
UACC-257 = system: UACC-257
786-0 = system: 786-0
NCI-H522 = system: NCI-H522
ACHN = system: ACHN
OVCAR-3 = system: OVCAR-3
SNB-75 = system: SNB-75
SF-539 = system: SF-539
U-251 = system: U-251
SF-295 = system: SF-295
LOX IMVI = system: LOX IMVI
HL-60 = system: HL-60
SK-MEL-2 = system: SK-MEL-2
OVCAR-8 = system: OVCAR-8
OVCAR-5 = system: OVCAR-5
MDA-N = system: MDA-N
OVCAR-4 = system: OVCAR-4
NCI-H226 = system: NCI-H226
NCI/ADR-RES = system: NCI/ADR-RES
A549 = system: A549
SF-268 = system: SF-268
MOLT-4 = system: MOLT-4
BT-549 = system: BT-549
RXF 393 = system: RXF 393
Malme-3M = system: Malme-3M
SR = system: SR
SK-MEL-28 = system: SK-MEL-28
EKVX = system: EKVX
MCF7 = system: MCF7
CCRF-CEM = system: CCRF-CEM
PC-3 = system: PC-3
CAKI-1 = system: CAKI-1
TK-10 = system: TK-10
NCI-H460 = system: NCI-H460
IGROV-1 = system: IGROV-1
K562 = system: K562
A498 = system: A498
MDA-MB-231 = system: MDA-MB-231
HOP-92 = system: HOP-92
HCC 2998 = system: HCC 2998

Question: For `O=C1N/C(=N\C2CCCCC2)C2(CCN(CCCC3(c4ccc(F)cc4)OCCO3)CC2)N1c1ccccc1`, which GI50 (HCT-116) is on record?
Answer: 12.2 µM (inactive)

Question: What about the GI50 (SN12C) of the same compound?
Answer: 20.4 µM (inactive)

Question: And the GI50 (COLO 205)?
Answer: 18.5 µM (inactive)

Question: What about the GI50 (M14) of the same compound?
Answer: 19.4 µM (inactive)

Question: What about the GI50 (MDA-MB-435) of the same compound?
Answer: 19.1 µM (inactive)

Question: And the GI50 (HCT-15)?
Answer: 18.1 µM

Question: What about the GI50 (SW-620) of the same compound?
Answer: 21.2 µM (inactive)

Question: And the GI50 (NCI-H23)?
Answer: 17.9 µM (inactive)

Question: What about the GI50 (UO-31) of the same compound?
Answer: 12.6 µM (inactive)

Question: What about the GI50 (UACC-62) of the same compound?
Answer: > 10 µM (inactive)

Question: What about the GI50 (SK-MEL-5) of the same compound?
Answer: 15 µM (inactive)

Question: And the GI50 (SK-OV-3)?
Answer: 21 µM (inactive)

Question: What about the GI50 (HT-29) of the same compound?
Answer: 16.6 µM (inactive)

Question: What about the GI50 (RPMI-8226) of the same compound?
Answer: 23 µM (inactive)

Question: And the GI50 (HOP-62)?
Answer: 17.5 µM (inactive)

Question: And the GI50 (SNB-19)?
Answer: 18.5 µM (inactive)

Question: What about the GI50 (Hs-578T) of the same compound?
Answer: 14.4 µM (inactive)

Question: And the GI50 (T47D)?
Answer: 17 µM (inactive)

Question: What about the GI50 (DU-145) of the same compound?
Answer: 17 µM (inactive)

Question: What about the GI50 (KM12) of the same compound?
Answer: 18 µM (inactive)

Question: And the GI50 (UACC-257)?
Answer: 15.1 µM (inactive)

Question: And the GI50 (786-0)?
Answer: 16.6 µM (inactive)

Question: And the GI50 (NCI-H522)?
Answer: 14.9 µM (inactive)

Question: What about the GI50 (ACHN) of the same compound?
Answer: 14.8 µM (inactive)

Question: What about the GI50 (OVCAR-3) of the same compound?
Answer: 11.8 µM (inactive)

Question: What about the GI50 (SNB-75) of the same compound?
Answer: 14.3 µM (inactive)

Question: And the GI50 (SF-539)?
Answer: 17 µM (inactive)

Question: And the GI50 (U-251)?
Answer: 15.9 µM (inactive)

Question: And the GI50 (SF-295)?
Answer: 19.9 µM (inactive)

Question: What about the GI50 (LOX IMVI) of the same compound?
Answer: 22.8 µM (inactive)

Question: What about the GI50 (HL-60) of the same compound?
Answer: 11.7 µM (inactive)

Question: And the GI50 (SK-MEL-2)?
Answer: 16 µM (inactive)

Question: And the GI50 (OVCAR-8)?
Answer: 24.8 µM (inactive)

Question: What about the GI50 (OVCAR-5) of the same compound?
Answer: 16.7 µM (inactive)

Question: What about the GI50 (MDA-N) of the same compound?
Answer: 15.4 µM (inactive)

Question: What about the GI50 (OVCAR-4) of the same compound?
Answer: 18.5 µM (inactive)

Question: What about the GI50 (NCI-H226) of the same compound?
Answer: 23.1 µM (inactive)

Question: What about the GI50 (NCI/ADR-RES) of the same compound?
Answer: 24.3 µM (inactive)

Question: What about the GI50 (A549) of the same compound?
Answer: 21.4 µM (inactive)

Question: What about the GI50 (SF-268) of the same compound?
Answer: 21.5 µM (inactive)

Question: What about the GI50 (MOLT-4) of the same compound?
Answer: 15.1 µM (inactive)

Question: And the GI50 (BT-549)?
Answer: 4.61 µM (inactive)

Question: And the GI50 (RXF 393)?
Answer: 17.3 µM (inactive)

Question: What about the GI50 (Malme-3M) of the same compound?
Answer: 16.7 µM (inactive)

Question: What about the GI50 (SR) of the same compound?
Answer: 13.9 µM (inactive)

Question: What about the GI50 (SK-MEL-28) of the same compound?
Answer: 18.6 µM (inactive)

Question: And the GI50 (EKVX)?
Answer: 16.8 µM (inactive)

Question: And the GI50 (MCF7)?
Answer: 21.2 µM (inactive)

Question: And the GI50 (CCRF-CEM)?
Answer: 29 µM (inactive)

Question: And the GI50 (PC-3)?
Answer: 19.3 µM (inactive)

Question: And the GI50 (CAKI-1)?
Answer: 22.8 µM (inactive)

Question: And the GI50 (TK-10)?
Answer: 15.7 µM (inactive)

Question: What does the source list for `C/C(=N\N=C(/S)N1CC2CCC(CC2)C1)c1ccncn1`?
Answer: GI50 (HCT-116): < 0.01 µM (active); GI50 (NCI-H460): < 0.01 µM (active); GI50 (SN12C): 0.0152 µM (active); GI50 (COLO 205): < 0.01 µM (active); GI50 (M14): < 0.01 µM (active); GI50 (MDA-MB-435): 0.0703 µM (active); GI50 (HCT-15): < 0.01 µM; GI50 (SW-620): < 0.01 µM (active); GI50 (NCI-H23): < 0.01 µM (active); GI50 (UO-31): < 0.01 µM (active); GI50 (UACC-62): < 0.01 µM (active); GI50 (SK-MEL-5): < 0.01 µM (active); GI50 (SK-OV-3): < 0.01 µM (active); GI50 (HT-29): < 0.01 µM (active); GI50 (RPMI-8226): < 0.01 µM (active); GI50 (HOP-62): 0.108 µM (active); GI50 (SNB-19): 0.198 µM (active); GI50 (Hs-578T): 0.914 µM (active); GI50 (T47D): < 0.01 µM (active); GI50 (IGROV-1): < 0.01 µM (active); GI50 (K562): < 0.01 µM (active); GI50 (DU-145): 0.309 µM (active); GI50 (KM12): < 0.01 µM (active); GI50 (UACC-257): < 0.01 µM (active); GI50 (786-0): 0.0103 µM (active); GI50 (ACHN): < 0.01 µM (active); GI50 (OVCAR-3): < 0.01 µM (active); GI50 (SNB-75): 0.221 µM (active); GI50 (SF-539): < 0.01 µM (active); GI50 (U-251): < 0.01 µM (active); GI50 (SF-295): < 0.0179 µM (active); GI50 (LOX IMVI): < 0.01 µM (active); GI50 (HL-60): < 0.01 µM (active); GI50 (SK-MEL-2): 1.19 µM (inactive); GI50 (OVCAR-8): < 0.01 µM (active); GI50 (OVCAR-5): 0.213 µM (active); GI50 (MDA-N): 0.189 µM (active); GI50 (OVCAR-4): 0.741 µM (active); GI50 (NCI-H226): < 0.01 µM (active); GI50 (NCI/ADR-RES): < 0.01 µM (active); GI50 (A549): < 0.01 µM (active); GI50 (SF-268): 0.133 µM (active); GI50 (MOLT-4): < 0.01 µM (active); GI50 (BT-549): 0.0512 µM (active); GI50 (RXF 393): 0.794 µM (active); GI50 (Malme-3M): < 0.01 µM (active); GI50 (SR): < 0.01 µM (active); GI50 (SK-MEL-28): 0.863 µM (active); GI50 (EKVX): < 0.01 µM (active); GI50 (MCF7): < 0.01 µM (active); GI50 (CCRF-CEM): < 0.01 µM (active); GI50 (PC-3): < 0.01 µM (active); GI50 (CAKI-1): < 0.01 µM (active); GI50 (TK-10): < 0.01 µM (active); GI50 (A498): 291 nM (active)

Question: What does the source list for `O=C(OCCN=c1c2ccccc2ccc2ccccc12)c1ccccc1`?
Answer: GI50 (HCT-116): 42.2 µM (inactive); GI50 (NCI-H460): 63.2 µM (inactive); GI50 (SN12C): 64.1 µM (inactive); GI50 (COLO 205): 92.5 µM (inactive); GI50 (M14): > 100 µM (inactive); GI50 (MDA-MB-435): > 100 µM (inactive); GI50 (HCT-15): 63.4 µM; GI50 (SW-620): 74 µM (inactive); GI50 (NCI-H23): > 100 µM (inactive); GI50 (UO-31): 56 µM (inactive); GI50 (UACC-62): 75 µM (inactive); GI50 (SK-MEL-5): 45 µM (inactive); GI50 (SK-OV-3): > 100 µM (inactive); GI50 (HT-29): 64 µM (inactive); GI50 (RPMI-8226): > 100 µM (inactive); GI50 (HOP-62): 64.6 µM (inactive); GI50 (SNB-19): 40.5 µM (inactive); GI50 (MDA-MB-231): 91.8 µM (inactive); GI50 (Hs-578T): 40.3 µM (inactive); GI50 (IGROV-1): 72.1 µM (inactive); GI50 (HOP-92): 75 µM (inactive); GI50 (K562): 38 µM (inactive); GI50 (DU-145): > 100 µM (inactive); GI50 (KM12): 86.5 µM (inactive); GI50 (UACC-257): > 100 µM (inactive); GI50 (786-0): 87.7 µM (inactive); GI50 (ACHN): 97.1 µM (inactive); GI50 (OVCAR-3): > 100 µM (inactive); GI50 (SNB-75): > 100 µM (inactive); GI50 (SF-539): 50.1 µM (inactive); GI50 (U-251): 56.4 µM (inactive); GI50 (SF-295): > 100 µM (inactive); GI50 (HCC 2998): 72.8 µM (inactive); GI50 (LOX IMVI): 72.1 µM (inactive); GI50 (HL-60): 27.3 µM (inactive); GI50 (SK-MEL-2): > 100 µM (inactive); GI50 (OVCAR-8): 78.7 µM (inactive); GI50 (OVCAR-5): > 100 µM (inactive); GI50 (MDA-N): > 100 µM (inactive); GI50 (OVCAR-4): 42.3 µM (inactive); GI50 (NCI-H226): > 100 µM (inactive); GI50 (NCI/ADR-RES): 96.4 µM (inactive); GI50 (A549): 86.5 µM (inactive); GI50 (SF-268): > 100 µM (inactive); GI50 (MOLT-4): > 100 µM (inactive); GI50 (BT-549): 42.2 µM (inactive); GI50 (RXF 393): > 100 µM (inactive); GI50 (Malme-3M): > 100 µM (inactive); GI50 (SR): > 100 µM (inactive); GI50 (SK-MEL-28): > 100 µM (inactive); GI50 (EKVX): 29.2 µM (inactive); GI50 (MCF7): > 100 µM (inactive); GI50 (CCRF-CEM): 40.8 µM (inactive); GI50 (PC-3): 67.3 µM (inactive); GI50 (CAKI-1): 83.4 µM (inactive); GI50 (TK-10): > 100 µM (inactive)
